In the assay the target is T1, SMARCA2 (Homo sapiens, UniProt P51531).
T1 construct: endogenous in cells; host or cells: HT1080 (CRISPR HiBiT knock-in clone, generated in house)
The assay is described as follows: SMARCA2 HiBiT degradation assay (cellular). It is filed as cell-based. To be noted: table head names A549; for DC50: 6 h incubation, HiBiT-tagged SMARCA2, luminescence read-out, read-out: HiBit A549 SMARCA2 IP (nM) 6 h; for Emax: A549, 6 h incubation, Emax = amount of residual protein remaining in the cell following compound treatment.

The record followed here is US20230024096A1, “BIFUNCTIONAL COMPOUNDS FOR THE TREATMENT OF CANCER” (Hoffmann-La Roche Inc., priority 2019, published 2023).

T1 sequence (P51531 whole entry): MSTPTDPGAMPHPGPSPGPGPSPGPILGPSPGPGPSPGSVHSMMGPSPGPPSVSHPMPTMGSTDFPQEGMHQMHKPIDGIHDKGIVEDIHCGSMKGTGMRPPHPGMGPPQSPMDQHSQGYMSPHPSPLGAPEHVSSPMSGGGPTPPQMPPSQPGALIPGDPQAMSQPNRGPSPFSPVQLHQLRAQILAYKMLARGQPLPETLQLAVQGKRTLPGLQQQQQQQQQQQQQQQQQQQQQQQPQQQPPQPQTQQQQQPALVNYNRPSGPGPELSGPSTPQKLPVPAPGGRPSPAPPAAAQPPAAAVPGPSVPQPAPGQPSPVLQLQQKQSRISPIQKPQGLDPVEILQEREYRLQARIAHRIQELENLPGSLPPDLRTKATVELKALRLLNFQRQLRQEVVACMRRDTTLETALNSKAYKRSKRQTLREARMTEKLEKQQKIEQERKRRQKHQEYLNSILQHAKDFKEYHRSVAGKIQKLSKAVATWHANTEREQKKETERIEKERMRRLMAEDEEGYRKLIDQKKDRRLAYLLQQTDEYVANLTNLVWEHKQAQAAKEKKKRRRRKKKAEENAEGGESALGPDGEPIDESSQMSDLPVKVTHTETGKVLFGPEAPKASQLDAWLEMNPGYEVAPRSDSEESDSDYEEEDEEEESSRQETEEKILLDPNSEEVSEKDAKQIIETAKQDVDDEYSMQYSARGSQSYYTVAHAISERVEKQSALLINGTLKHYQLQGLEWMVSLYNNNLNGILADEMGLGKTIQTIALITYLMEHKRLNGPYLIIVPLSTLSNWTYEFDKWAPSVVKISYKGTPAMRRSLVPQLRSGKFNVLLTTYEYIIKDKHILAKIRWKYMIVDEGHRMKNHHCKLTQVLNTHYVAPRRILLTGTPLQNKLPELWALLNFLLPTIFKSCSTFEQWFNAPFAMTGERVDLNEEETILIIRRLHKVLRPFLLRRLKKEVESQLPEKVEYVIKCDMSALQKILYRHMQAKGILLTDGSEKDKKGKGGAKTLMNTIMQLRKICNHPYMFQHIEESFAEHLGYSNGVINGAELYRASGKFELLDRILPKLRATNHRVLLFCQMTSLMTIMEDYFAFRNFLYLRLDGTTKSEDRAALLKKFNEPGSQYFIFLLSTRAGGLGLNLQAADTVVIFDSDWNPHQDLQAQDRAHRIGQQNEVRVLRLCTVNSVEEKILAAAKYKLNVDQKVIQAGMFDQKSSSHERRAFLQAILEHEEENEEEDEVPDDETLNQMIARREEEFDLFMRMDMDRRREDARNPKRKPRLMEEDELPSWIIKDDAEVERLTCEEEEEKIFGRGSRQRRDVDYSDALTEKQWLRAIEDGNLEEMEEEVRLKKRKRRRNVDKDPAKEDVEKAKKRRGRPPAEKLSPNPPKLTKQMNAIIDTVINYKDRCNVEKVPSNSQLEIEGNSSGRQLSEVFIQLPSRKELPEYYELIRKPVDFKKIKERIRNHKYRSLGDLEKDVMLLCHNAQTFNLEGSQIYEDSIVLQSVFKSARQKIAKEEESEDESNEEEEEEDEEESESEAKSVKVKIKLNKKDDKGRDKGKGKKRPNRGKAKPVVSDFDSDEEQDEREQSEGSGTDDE

The term Emax denotes the maximal effect, on the per cent scale that the assay sets. Turning to `Nc1nnc(-c2ccccc2O)cc1OC1CCCN(c2ccc(N3CCN(C(=O)CCCCCCCCn4cc(CNc5cccc6c5C(=O)N(C5CCC(=O)NC5=O)C6=O)nn4)CC3)cc2)C1` (stereo not drawn) [Example 3, 4-[[1-[9-[4-[4-[3-[3-amino-6-(2-hydroxyphenyl)pyridazin-4-yl]oxy-1-piperidyl]phenyl]piperazin-1-yl]-9-oxo-nonyl]triazol-4-yl]methylamino]-2-(2,6-dioxo-3-piperidyl)isoindoline-1,3-dione], the DC50 was 65 nM and the Emax is 50%.
Take `CC(Oc1cccc2c1C(=O)N(C1CCC(=O)NC1=O)C2=O)c1cn(CCCN2CCN(C(=O)CCN3CCN(c4ccc(N5CCC[C@H](Oc6cc(-c7ccccc7O)nnc6N)C5)cc4)CC3)CC2)nn1` (mixture of isomers) [Example 200, 2-(2,6-dioxo-3-piperidyl)-4-[1-[1-[3-[4-[3-[4-[4-[rac-(3S)-3-[3-amino-6-(2-hydroxyphenyl)pyridazin-4-yl]oxy-1-piperidyl]phenyl]piperazin-1-yl]propanoyl]piperazin-1-yl]propyl]triazol-4-yl]ethoxy]isoindoline-1,3-dione]: the DC50 came out at 104 nM and the maximum response (Emax) came to 45%.
For `Nc1nnc(-c2ccccc2O)cc1N1CCC(NC(=O)CCCN2CCC(c3ccc(NC4CCC(=O)NC4=O)cc3)CC2)(c2ccccc2)CC1` (stereo not drawn) [Example 91, N-[1-[3-amino-6-(2-hydroxyphenyl)pyridazin-4-yl]-4-phenyl-4-piperidyl]-4-[4-[4-[(2,6-dioxo-3-piperidyl)amino]phenyl]-1-piperidyl]butanamide], the DC50 came out at 90 nM and the Emax turned out to be 46%.
For the compound `Nc1nnc(-c2ccccc2O)cc1OC1CCCN(c2ccc(N3CCN(CCCCCCCCCc4ccnc(CNc5cccc6c5C(=O)N(C5CCC(=O)NC5=O)C6=O)c4)CC3)cc2)C1` (stereo not drawn) [Example 139, 4-[[4-[9-[4-[4-[3-[3-amino-6-(2-hydroxyphenyl)pyridazin-4-yl]oxy-1-piperidyl]phenyl]piperazin-1-yl]nonyl]-2-pyridyl]methylamino]-2-(2,6-dioxo-3-piperidyl)isoindoline-1,3-dione], the DC50 stood at 802 nM and the maximal response (Emax) was found to be 62%.
On to `Nc1nnc(-c2ccccc2O)cc1N1CC2CCC(C1)N2c1ccc(C(F)(F)F)c(C(=O)N2CCN(C(=O)C3CCN(c4ccc5c(c4)C(=O)N(C4CCC(=O)NC4=O)C5=O)CC3)CC2)c1` (racemic) [Example 107, rac-5-[4-[4-[5-[3-[3-amino-6-(2-hydroxyphenyl)pyridazin-4-yl]-3,8-diazabicyclo[3.2.1]octan-8-yl]-2-(trifluoromethyl)benzoyl]piperazine-1-carbonyl]-1-piperidyl]-2-(2,6-dioxo-3-piperidyl)isoindoline-1,3-dione], for which the DC50 amounted to 193 nM and the Emax stood at 51%.
For `Nc1nnc(-c2ccccc2O)cc1OC1CCCN(c2ccc(N3CCN(C(=O)CCCCCCCCCn4cc(CNc5cccc6c5C(=O)N(C5CCC(=O)NC5=O)C6=O)nn4)CC3)cc2)C1` (stereo not drawn) [Example 28, 4-[[1-[10-[4-[4-[3-[3-amino-6-(2-hydroxyphenyl)pyridazin-4-yl]oxy-1-piperidyl]phenyl]piperazin-1-yl]-10-oxo-decyl]triazol-4-yl]methylamino]-2-(2,6-dioxo-3-piperidyl)isoindoline-1,3-dione], the DC50 was 91 nM and the maximal response (Emax) was found to be 48%.
For `Nc1nnc(-c2ccccc2O)cc1N1CC2CCC(C1)N2c1nccc(OCCN2CCN(CCCOC3CCN(c4ccc5c(c4)C(=O)N(C4CCC(=O)NC4=O)C5=O)CC3)CC2)n1` (racemic) [Example 161, rac-5-[4-[3-[4-[2-[2-[3-[3-Amino-6-(2-hydroxyphenyl)pyridazin-4-yl]-3,8-diazabicyclo[3.2.1]octan-8-yl]pyrimidin-4-yl]oxyethyl]piperazin-1-yl]propoxy]-1-piperidyl]-2-(2,6-dioxo-3-piperidyl)isoindoline-1,3-dione] the same measures were 33 nM and 30%.
Regarding `Nc1nnc(-c2ccccc2O)cc1OC1CCCN(c2ccc(N3CCN(CC4CN(C(=O)CCCCn5cc(COc6cccc7c6C(=O)N(C6CCC(=O)NC6=O)C7=O)nn5)C4)CC3)cc2)C1` (racemic) [Example 137, 2-(2,6-dioxo-3-piperidyl)-4-[[1-[5-oxo-5-[3-[[4-[4-[rac-(3S)-3-[3-amino-6-(2-hydroxyphenyl)pyridazin-4-yl]oxy-1-piperidyl]phenyl]piperazin-1-yl]methyl]azetidin-1-yl]pentyl]triazol-4-yl]methoxy]isoindoline-1,3-dione], the DC50 was found to be 535 nM and the Emax amounted to 63%.
For `Nc1nnc(-c2ccccc2O)cc1N1CCN(c2ccccc2)C(C(=O)NCC2CCN(C(=O)C3CCN(c4ccc5c(c4)C(=O)N(C4CCC(=O)NC4=O)C5=O)CC3)CC2)C1` (stereo not drawn) [Example 82, 4-(3-amino-6-(2-hydroxyphenyl)pyridazin-4-yl)-N-((1-(1-(2-(2,6-dioxopiperidin-3-yl)-1,3-dioxoisoindolin-5-yl)piperidine-4-carbonyl)piperidin-4-yl)methyl)-1-phenylpiperazine-2-carboxamide] the same measures were 190 nM and 65%.
With `Nc1nnc(-c2ccccc2O)cc1N1CCC(CNC(=O)CCNc2cccc3c2C(=O)N(C2CCC(=O)NC2=O)C3=O)(c2ccccc2)CC1` (stereo not drawn) [Example 75, N-((1-(3-amino-6-(2-hydroxyphenyl)pyridazin-4-yl)-4-phenylpiperidin-4-yl)methyl)-3-((2-(2,6-dioxopiperidin-3-yl)-1,3-dioxoisoindolin-4-yl)amino)], the DC50 worked out at 1430 nM and the Emax was found to be 63%.
Take `Nc1nnc(-c2ccccc2O)cc1N1CCC(C(=O)N2CC3(CCN(C(=O)COc4ccc5c(c4)C(=O)N(C4CCC(=O)NC4=O)C5=O)C3)C2)(c2ccccc2)CC1` (stereo not drawn) [Example 189, 5-(2-(2-(1-(3-amino-6-(2-hydroxyphenyl)pyridazin-4-yl)-4-phenylpiperidine-4-carbonyl)-2,6-diazaspiro[3.4]octan-6-yl)-2-oxoethoxy)-2-(2,6-dioxopiperidin-3-yl)isoindoline-1,3-dione]: the DC50 was 1370 nM and the Emax is 62%.
`Nc1nnc(-c2ccccc2O)cc1N1CC2CCC(C1)N2c1cccc(OCCN2CCN(C(=O)CCC(=O)N3CCC(Oc4ccc5c(c4)C(=O)N(C4CCC(=O)NC4=O)C5=O)CC3)CC2)c1` (racemic) [Example 10, rac-5-[[1-[4-[4-[2-[3-[3-[3-amino-6-(2-hydroxyphenyl)pyridazin-4-yl]-3,8-diazabicyclo[3.2.1]octan-8-yl]phenoxy]ethyl]piperazin-1-yl]-4-oxo-butanoyl]-4-piperidyl]oxy]-2-(2,6-dioxo-3-piperidyl)isoindoline-1,3-dione]: the DC50 amounted to 58 nM and the maximal effect (Emax) amounted to 49%.
For the compound `Nc1nnc(-c2ccccc2O)cc1N1CC2CCC(C1)N2c1cccc(OCCN2CCN(C(=O)CCCNC(=O)COc3cccc4c3C(=O)N(C3CCC(=O)NC3=O)C4=O)CC2)c1` (racemic) [Example 17, rac-N-[4-[4-[2-[3-[3-[3-amino-6-(2-hydroxyphenyl)pyridazin-4-yl]-3,8-diazabicyclo[3.2.1]octan-8-yl]phenoxy]ethyl]piperazin-1-yl]-4-oxo-butyl]-2-[2-(2,6-dioxo-3-piperidyl)-1,3-dioxo-isoindolin-4-yl]oxy-acetamide], the DC50 was 1440 nM and the maximal effect (Emax) turned out to be 64%.
For `Nc1nnc(-c2ccccc2O)cc1N1CC2CCC(C1)N2c1cccc(OCCN2CCN(C(=O)N3CCN(c4ccc(NC5CCC(=O)NC5=O)cc4)CC3)CC2)c1` (racemic) [Example 81, rac-3-[4-[4-[4-[2-[3-[3-[3-amino-6-(2-hydroxyphenyl)pyridazin-4-yl]-3,8-diazabicyclo[3.2.1]octan-8-yl]phenoxy]ethyl]piperazine-1-carbonyl]piperazin-1-yl]anilino]piperidine-2,6-dione], the DC50 was found to be 16 nM and the Emax is 56%.
As to `Nc1nnc(-c2ccccc2O)cc1OC1CCCN(c2ccc(N3CCN(C(=O)CCCCCCCCn4cc(CNc5cccc6c5C(=O)N(C5CCC(=O)NC5=O)C6)nn4)CC3)cc2)C1` (stereo not drawn) [Example 111, 3-[7-[[1-[9-[4-[4-[3-[3-amino-6-(2-hydroxyphenyl)pyridazin-4-yl]oxy-1-piperidyl]phenyl]piperazin-1-yl]-9-oxo-nonyl]triazol-4-yl]methylamino]-1-oxo-isoindolin-2-yl]piperidine-2,6-dione], the DC50 was determined as 177 nM and the Emax came to 60%.
Regarding `Nc1nnc(-c2ccccc2O)cc1N1CC(Oc2ccc(CN3CCN(C(=O)CCCCCCCCCNc4cccc5c4C(=O)N(C4CCC(=O)NC4=O)C5=O)CC3)cc2)C1` (stereo not drawn) [Example 68, 4-[[10-[4-[[4-[1-[3-amino-6-(2-hydroxyphenyl)pyridazin-4-yl]azetidin-3-yl]oxyphenyl]methyl]piperazin-1-yl]-10-oxo-decyl]amino]-2-(2,6-dioxo-3-piperidyl)isoindoline-1,3-dione], the DC50 came out at 201 nM and the maximal effect (Emax) came to 55%.
Regarding `Nc1nnc(-c2ccccc2O)cc1N1CCC(C(=O)NCC2CCN(CC3CCN(c4ccc5c(c4)C(=O)N(C4CCC(=O)NC4=O)C5=O)CC3)CC2)(c2ccccc2)CC1` (stereo not drawn) [Example 100, 1-(3-amino-6-(2-hydroxyphenyl)pyridazin-4-yl)-N-((1-((1-(2-(2,6-dioxopiperidin-3-yl)-1,3-dioxoisoindolin-5-yl)piperidin-4-yl)methyl)piperidin-4-yl)methyl)-4-phenylpiperidine-4-carboxamide], the DC50 was 104 nM and the Emax worked out at 30%.
For `Nc1nnc(-c2ccccc2O)cc1N1CC(Oc2cccc(N3CCN(C(=O)CN4CCC(c5ccc(NC6CCC(=O)NC6=O)cc5)CC4)CC3)c2)C1` (racemic) [Example 112, rac-3-[4-[1-[2-[4-[3-[1-[3-amino-6-(2-hydroxyphenyl)pyridazin-4-yl]azetidin-3-yl]oxyphenyl]piperazin-1-yl]-2-oxo-ethyl]-4-piperidyl]anilino]piperidine-2,6-dione] the same measures were 101 nM and 51%.
